Experimental data taken from ChEMBL document CHEMBL1201862, “PubChem BioAssay data set” (2004).
Calls of active or inactive are those of the source.

How the values were obtained:
[1] = cells
[2] = HEp-2 cell cytotoxicity, dose response, cytotoxicity control for RSV inhibitor project, HTS (AID 2410); assay type: functional; conditions: human respiratory syncytial virus
[3] = biological target: Prothrombin (Homo sapiens, UniProt P00734); experiment: Thrombin 1536 HTS Dose Response Confirmation. [Related pubchem assays: 1046 (Thrombin 1536 HTS; hits were confirmed in this assay)]; assay type: functional
[4] = tested on: HEK293; experiment: Fluorescence-based counterscreen for potentiators or agonists of NPY-Y2: cell-based high-throughput dose response assay to identify inhibitors of cyclic nucleotide gated ion channel (CNGC) activity. In this assay, the parental HEK293 cell line transfected with a cyclic-nucleotide gated ion channel (CNGC)-based cAMP sensor is used to measure inhibition of isoproterenol-induced CNGC activity by test compound.; assay type: functional; conditions: Homo sapiens;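 also: stimulus is 1 µM isoproterenol at EC100 plus PDE inhibitor Ro 20-1724 at 25 µM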
[5] = tested on: Streptococcus sp. 'group A'; experiment: growth inhibition of control SK(-) GAS strain, dose response, counter-screen for streptokinase expression inhibitor project, luminescence, kanamycin, BacTiterGlo, confirmation (AID 1900); assay type: functional, organism-based
[6] = tested on: Streptococcus; experiment: Group A Streptococcus viability loss, dose response, counter-screen for streptokinase expression inhibitor project, luminescence, BacTiterGlo (AID 1915); assay type: functional, organism-based;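 also: potency for reduction of bacterial viability or growth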
[7] = biological target: T1, Neuropeptide Y receptor type 2 (Homo sapiens, UniProt P49146); experiment: Fluorescence-based cell-based high-throughput dose response assay for agonists of NPY-Y2. [Related pubchem assays: 1703 (Screening assay (CNGC inhibitors).), 1359 (Screening assay (NPY-Y2 potentiators or agonists).), 1304 (Screening assay (NPY-Y1 potentiators or agonists).), 1710 (Screening assay (NPY-Y2 agonists).), 1791 (Summary AID.)]; assay type: functional
T1 sequence (P49146 whole entry): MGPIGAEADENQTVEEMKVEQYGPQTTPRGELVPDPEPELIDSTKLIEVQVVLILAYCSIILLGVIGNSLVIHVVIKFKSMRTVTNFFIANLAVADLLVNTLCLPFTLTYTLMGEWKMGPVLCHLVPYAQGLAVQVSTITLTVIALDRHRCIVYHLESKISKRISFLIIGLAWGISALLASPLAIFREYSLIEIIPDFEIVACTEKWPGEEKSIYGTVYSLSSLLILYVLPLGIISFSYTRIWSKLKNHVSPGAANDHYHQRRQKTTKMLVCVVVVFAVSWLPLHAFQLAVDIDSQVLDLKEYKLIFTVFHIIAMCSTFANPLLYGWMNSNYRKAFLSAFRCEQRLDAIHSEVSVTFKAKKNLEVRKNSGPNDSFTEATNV

[8] = biological target: T2, Streptokinase A (Streptococcus pyogenes serotype M1, UniProt P10520); experiment: S. pyogenes streptokinase expression inhibitors, potency, dose response, plasminogen activation absorbance, OD405 (AID 1914); assay type: functional, Streptococcus pyogenes M1 GAS;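 also: secreted streptokinase activity via plasminogen activation per viability signal from cell pellet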
T2 sequence (P10520 whole entry): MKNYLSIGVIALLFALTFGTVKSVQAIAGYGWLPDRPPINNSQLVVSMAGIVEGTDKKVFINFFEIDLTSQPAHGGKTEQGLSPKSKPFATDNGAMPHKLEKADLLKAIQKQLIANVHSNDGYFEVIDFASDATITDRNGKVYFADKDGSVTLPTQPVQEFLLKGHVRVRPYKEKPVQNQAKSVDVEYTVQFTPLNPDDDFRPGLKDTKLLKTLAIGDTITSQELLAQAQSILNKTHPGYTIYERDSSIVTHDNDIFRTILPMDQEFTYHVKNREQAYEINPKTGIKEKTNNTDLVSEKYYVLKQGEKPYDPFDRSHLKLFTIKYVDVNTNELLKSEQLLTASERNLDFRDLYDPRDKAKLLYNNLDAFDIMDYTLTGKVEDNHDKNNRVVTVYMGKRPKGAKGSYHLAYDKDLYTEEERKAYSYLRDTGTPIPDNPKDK

[9] = biological target: T3, Neuropeptide Y receptor type 1 (Homo sapiens, UniProt P25929); experiment: Fluorescence-based counterscreen for agonists of NPY-Y2: cell-based high-throughput dose response assay for agonists of NPY-Y1.; assay type: functional
T3 sequence (P25929 whole entry): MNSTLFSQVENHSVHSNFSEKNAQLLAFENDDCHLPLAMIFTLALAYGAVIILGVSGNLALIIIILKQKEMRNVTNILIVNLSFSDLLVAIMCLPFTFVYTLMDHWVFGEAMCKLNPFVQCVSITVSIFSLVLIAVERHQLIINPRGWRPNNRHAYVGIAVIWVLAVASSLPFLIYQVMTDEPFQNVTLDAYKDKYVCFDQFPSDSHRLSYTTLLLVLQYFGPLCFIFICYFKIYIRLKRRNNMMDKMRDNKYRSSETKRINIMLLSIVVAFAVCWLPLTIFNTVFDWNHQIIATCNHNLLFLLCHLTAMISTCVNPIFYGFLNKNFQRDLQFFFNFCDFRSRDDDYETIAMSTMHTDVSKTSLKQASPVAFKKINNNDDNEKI

[10] = biological target: T4, Replicative DNA helicase DnaB (Mycobacterium tuberculosis, UniProt P9WMR3); experiment: DnaB intein splicing inhibitors, dose response, biochemical, cell-free fluorescence (AID 449749); assay type: functional
T4 sequence (P9WMR3 whole entry): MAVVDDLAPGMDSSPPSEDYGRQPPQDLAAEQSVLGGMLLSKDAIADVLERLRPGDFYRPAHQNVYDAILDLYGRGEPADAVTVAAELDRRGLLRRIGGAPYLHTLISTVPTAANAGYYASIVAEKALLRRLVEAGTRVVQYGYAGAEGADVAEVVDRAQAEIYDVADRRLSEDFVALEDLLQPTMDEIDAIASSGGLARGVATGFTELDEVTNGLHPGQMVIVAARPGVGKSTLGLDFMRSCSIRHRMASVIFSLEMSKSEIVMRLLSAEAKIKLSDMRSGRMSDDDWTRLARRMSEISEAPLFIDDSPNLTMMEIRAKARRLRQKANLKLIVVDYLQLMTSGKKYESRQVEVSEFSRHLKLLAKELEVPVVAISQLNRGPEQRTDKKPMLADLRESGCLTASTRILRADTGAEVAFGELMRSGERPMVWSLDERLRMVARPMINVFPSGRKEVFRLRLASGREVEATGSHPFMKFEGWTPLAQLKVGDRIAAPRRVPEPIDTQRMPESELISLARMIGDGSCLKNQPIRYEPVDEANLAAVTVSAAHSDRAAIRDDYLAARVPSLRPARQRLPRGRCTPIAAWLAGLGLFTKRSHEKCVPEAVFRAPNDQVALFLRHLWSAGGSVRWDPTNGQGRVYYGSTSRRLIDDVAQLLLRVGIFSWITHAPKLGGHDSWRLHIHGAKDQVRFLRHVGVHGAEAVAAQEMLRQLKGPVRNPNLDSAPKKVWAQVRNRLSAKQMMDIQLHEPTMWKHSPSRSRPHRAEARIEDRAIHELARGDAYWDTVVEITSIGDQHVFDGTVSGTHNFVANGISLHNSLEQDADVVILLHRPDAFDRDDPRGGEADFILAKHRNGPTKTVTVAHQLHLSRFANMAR

[11] = biological target: T5, Protein RecA (Mycobacterium tuberculosis, UniProt P9WHJ3); experiment: Fluorescence Cell-Free Homogeneous Dose Retest to Identify Inhibitors of RecA-Intein Splicing Activity. [Related pubchem assays (depositor defined):AID2097, AID2223, AID489010, AID492950]; assay type: functional
T5 sequence (P9WHJ3 whole entry): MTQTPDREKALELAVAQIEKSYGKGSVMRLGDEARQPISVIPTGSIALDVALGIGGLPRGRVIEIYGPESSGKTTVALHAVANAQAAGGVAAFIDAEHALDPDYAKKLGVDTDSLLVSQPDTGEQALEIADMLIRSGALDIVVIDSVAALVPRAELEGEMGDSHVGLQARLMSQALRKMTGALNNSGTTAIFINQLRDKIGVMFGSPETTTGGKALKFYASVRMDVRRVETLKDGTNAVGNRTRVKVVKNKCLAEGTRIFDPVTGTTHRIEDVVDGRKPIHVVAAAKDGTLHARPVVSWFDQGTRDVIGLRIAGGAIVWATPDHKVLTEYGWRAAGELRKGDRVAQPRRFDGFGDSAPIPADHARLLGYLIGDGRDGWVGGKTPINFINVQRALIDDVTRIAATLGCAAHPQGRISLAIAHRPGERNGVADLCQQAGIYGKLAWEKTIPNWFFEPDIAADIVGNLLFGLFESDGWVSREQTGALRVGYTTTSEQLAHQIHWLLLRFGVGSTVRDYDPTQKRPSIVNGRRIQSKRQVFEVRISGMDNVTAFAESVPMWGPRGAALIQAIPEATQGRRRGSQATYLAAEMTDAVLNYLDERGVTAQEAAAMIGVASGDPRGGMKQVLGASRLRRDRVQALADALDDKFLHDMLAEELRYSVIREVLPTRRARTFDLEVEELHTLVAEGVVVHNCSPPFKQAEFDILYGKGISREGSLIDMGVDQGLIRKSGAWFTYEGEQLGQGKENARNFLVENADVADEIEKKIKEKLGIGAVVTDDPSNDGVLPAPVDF

[12] = P. falciparum 3D7-ScDHODH growth inhibitors, dose response, SYBR Green, dry powder samples (AID 1159570); assay type: functional, cell-based;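 also: parasite growth measured after 72 hours of compound exposure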
[13] = P. falciparum Dd2 growth inhibitors, dose response, SYBR Green, cherry-picked samples (AID 1159567); assay type: functional, cell-based
[14] = P. falciparum Dd2 growth inhibitors, dose response, SYBR Green, dry powder samples (AID 1159566); assay type: functional, cell-based;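 also: potency for growth inhibition with lower SYBR green DNA signal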
[15] = P. falciparum ATP4 D1247Y mutant growth inhibitors, dose response, NITD609-resistant line, SYBR Green, dry powder (AID 1159571); assay type: functional, cell-based;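 also: parasites synchronized at ring stage by sorbitol before testing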
[16] = HeLa cell cytotoxicity, dose response, cytotoxicity control for MgcRacGAP inhibitor project (AID 624300); assay type: functional
[17] = biological target: T6, Rac GTPase-activating protein 1 (Homo sapiens, UniProt Q9H0H5); experiment: MgcRacGAP GTPase-activating activity inhibitors, confirmation, biochemical, ADP Hunter fluorescence, primary and confirmatory (AID 624330); assay type: functional
T6 sequence (Q9H0H5 whole entry): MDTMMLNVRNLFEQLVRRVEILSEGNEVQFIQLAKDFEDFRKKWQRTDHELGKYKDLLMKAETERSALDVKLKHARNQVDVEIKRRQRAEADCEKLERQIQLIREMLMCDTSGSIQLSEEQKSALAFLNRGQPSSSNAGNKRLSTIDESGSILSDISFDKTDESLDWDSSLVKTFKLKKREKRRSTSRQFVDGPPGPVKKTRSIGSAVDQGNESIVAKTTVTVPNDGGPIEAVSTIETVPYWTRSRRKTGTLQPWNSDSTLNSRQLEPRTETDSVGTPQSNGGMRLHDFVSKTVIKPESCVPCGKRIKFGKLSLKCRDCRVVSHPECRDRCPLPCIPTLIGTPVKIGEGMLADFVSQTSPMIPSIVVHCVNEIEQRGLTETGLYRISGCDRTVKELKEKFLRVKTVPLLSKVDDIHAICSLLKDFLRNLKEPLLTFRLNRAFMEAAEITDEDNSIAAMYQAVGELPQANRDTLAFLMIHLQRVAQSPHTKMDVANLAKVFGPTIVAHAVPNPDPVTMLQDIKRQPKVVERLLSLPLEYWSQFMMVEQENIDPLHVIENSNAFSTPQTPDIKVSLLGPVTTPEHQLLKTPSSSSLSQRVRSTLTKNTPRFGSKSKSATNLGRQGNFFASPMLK

[18] = biological target: NAD-dependent protein deacylase sirtuin-5, mitochondrial (Homo sapiens, UniProt Q9NXA8); experiment: SIRT5 desuccinylase inhibitors, dose response, biochemical, fluorescence imaging, cherry-pick, set 5 (AID 720591);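 also: desuccinylation of succinyl peptide AMC substrate read as fluorescence after trypsin release; potency of inhibitors that lower fluorescence and may act on trypsin instead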
NAD-dependent protein deacylase sirtuin-5, mitochondrial, sequence (Q9NXA8 whole entry): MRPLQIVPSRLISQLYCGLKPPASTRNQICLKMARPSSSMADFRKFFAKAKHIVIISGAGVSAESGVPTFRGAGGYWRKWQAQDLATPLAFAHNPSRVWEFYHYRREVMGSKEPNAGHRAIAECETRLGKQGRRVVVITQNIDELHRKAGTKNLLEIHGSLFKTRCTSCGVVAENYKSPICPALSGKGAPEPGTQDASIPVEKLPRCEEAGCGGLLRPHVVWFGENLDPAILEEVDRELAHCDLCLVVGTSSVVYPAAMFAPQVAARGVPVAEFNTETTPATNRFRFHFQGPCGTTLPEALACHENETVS

In the case of `O=C1c2ccccc2C(=O)N1CCCCN(C(=O)c1ccco1)c1ccc(Cl)cc1`, the IC50 [1] is reported as 11.8 µM (active).

For `Nc1ccc(Br)c[n+]1Cc1cccc2cccnc12`, the CC50 [2] was > 50 µM (active) and the IC50 [1] was 46.7 µM (active).

In the case of `CCOC(=O)c1ccc(NC(=O)NC2CCN(CC(=O)NCc3ccc4c(c3)OCO4)CC2)cc1`, the IC50 [3] is reported as > 50 µM (not active).

For `CC(=O)C(=Nc1ccc(Cl)cc1Cl)NNc1cccc(Cl)c1`, the EC50 [4] was > 35.4 µM (not active), the EC50 [5] was 3.14 µM (active) and the EC50 [6] was > 150 µM (not active).

For `Cc1ccc(C(=O)n2nc(-c3ccco3)nc2N)cc1`, the IC50 [3] was 0.741 µM (active).

In the case of `CC(=O)C(=NNc1cccc(Cl)c1)Nc1ccc(Cl)cc1Cl`, the EC50 [7] is reported as 21.2 µM (not active), the EC50 [8] is reported as 2.72 µM (active) and the EC50 [9] is reported as 12.6 µM (not active). The AC50 [10] was 379 µM (active) and the EC50 [11] was 49 µM (active).

With `C/C=C/c1ccccc1[C@H]1[C@@H](C#N)N(C(=O)NC2CCCC2)[C@H]1CO` the AC50 [12] was 33.8 µM (active), the AC50 [13] was 1.85 µM (active) and the AC50 [14] was 952 nM (active). For the same molecule, the AC50 [15] was 1.58 µM (active).

For `Cc1ccc(C)c(NC(=O)C2Cc3ccccc3CN2C(=O)OCc2ccccc2)c1` (stereo unspecified), the IC50 [3] was > 50 µM (not active).

With `CCN(CC)c1ccc(S(=O)(=O)N2CCOCC2)cc1NC(=O)CN1CCN(Cc2ccccc2)CC1` the CC50 [16] was 100 µM (active), the IC50 [17] was 84.5 µM (active) and the AC50 [18] was 18.1 µM (active).
